Among the test systems are UO-31; SK-MEL-5; A498; PC-3; COLO 205; NCI-H522; U-251; HCT-15; MDA-MB-435; HCT-116; K562; NCI/ADR-RES; HCC 2998; OVCAR-3; Malme-3M; CCRF-CEM; CAKI-1; RPMI-8226; NCI-H226.
What all share (assay): DTP human tumour cell line panel, 48 h

Data on four molecules can be found in ChEMBL document CHEMBL1201862, “PubChem BioAssay data set” (2004).

The structures appear in SMILES notation.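 1) Cells in 96-well plates. 2) Compound, 48 h, 5 concentrations. 3) Linear interpolation between surrounding doses. 4) Unreached endpoint = highest concentration. GI50 is the concentration that inhibits growth by half.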 Activity calls are given as the source filed them. No stated cut-off is given here; in the data, active = GI50 up to about 1.1 µM and inactive = higher. Some results are limits rather than exact numbers.

As to `CN(C)c1ccc(/C=N/c2ccc(-c3nc4ccccc4o3)cc2)cc1`, the GI50 is 48.8 µM (inactive) in the test with UO-31; 13 µM (inactive) in the test with SK-MEL-5; 53 µM (inactive) in the test with A498; 29.7 µM (inactive) in the test with PC-3; 30.5 µM (inactive) in the test on COLO 205; 42.3 µM (inactive) with NCI-H522. The GI50 is 31.7 µM (inactive) in the test with U-251; 31.8 µM in the test on HCT-15; 30.1 µM (inactive) in the test with MDA-MB-435; 53.7 µM (inactive) in the test on HCT-116; 36.7 µM (inactive) with K562; 33.5 µM (inactive) in the test on NCI/ADR-RES. Besides, the figures for the GI50 in the test on HCC 2998, with OVCAR-3 and with Malme-3M were 14.7 µM (inactive), 20.3 µM (inactive) and > 100 µM (inactive), respectively.
In the case of `C=C(C)C(=O)CC[C@@H](C)[C@H]1[C@@H](OC2OC(CO)C(O)C(O)C2O)C[C@@]2(C)[C@@H]3C[C@H](O)C4C(C)(C)[C@@H](OC5OC(CO)C(O)C(O)C5O)CC[C@@]45C[C@@]35CC[C@]12C` (some centres not stated), the GI50 with UO-31 was > 100 µM (inactive); with SK-MEL-5, 46.6 µM (inactive); in the test with A498, > 100 µM (inactive); in the test on PC-3, > 100 µM (inactive); with COLO 205 it was 92 µM (inactive); in the test on NCI-H522, 80.4 µM (inactive). Also, the GI50 with U-251 was > 100 µM (inactive); in the test on HCT-15 it was > 100 µM; with MDA-MB-435, 68.9 µM (inactive); with HCT-116, > 100 µM (inactive); in the test on CCRF-CEM, 64.9 µM (inactive); with K562, 90.6 µM (inactive). Also, the GI50 in the test with NCI/ADR-RES was > 100 µM (inactive); in the test with HCC 2998, 47 µM (inactive); in the test on CAKI-1, 66.4 µM (inactive); with OVCAR-3, > 100 µM (inactive); in the test on Malme-3M, > 100 µM (inactive); in the test on RPMI-8226, > 100 µM (inactive).
As to `O=C(OCc1ccccc1)N1CCN(C(=O)OCc2ccccc2)CCN(C(=O)OCc2ccccc2)CCN(C(=O)OCc2ccccc2)CCN(C(=O)OCc2ccccc2)CC1`, the GI50 in the test on UO-31 is 22.8 µM (inactive); with SK-MEL-5, 18.4 µM (inactive); in the test on A498 it was > 100 µM (inactive); with NCI-H226, > 100 µM (inactive); in the test on PC-3, > 100 µM (inactive); in the test with COLO 205, 31.1 µM (inactive). The GI50 in the test on NCI-H522 was 68.2 µM (inactive); with U-251, 76.7 µM (inactive); in the test with HCT-15, 46.8 µM; in the test with MDA-MB-435, > 100 µM (inactive); with HCT-116 it was > 100 µM (inactive); with NCI/ADR-RES, 79.4 µM (inactive). In addition, the GI50 in the test with HCC 2998 was > 100 µM (inactive); with CAKI-1, > 100 µM (inactive); with OVCAR-3 it was > 100 µM (inactive); with Malme-3M it was 24.4 µM (inactive).
For the molecule `N#Cc1ccc(/C=[N+](/C=c2ccc(=C=[N-])cc2)N(CCO)C2=NCCN2)cc1`, the GI50 with UO-31, with SK-MEL-5, with A498, with NCI-H226, with PC-3 and in the test on COLO 205 was > 100 µM (inactive) in each case. Moreover, the GI50 in the test on NCI-H522 was 71 µM (inactive); in the test with U-251, > 100 µM (inactive); with HCT-15, > 100 µM; with MDA-MB-435 it was > 100 µM (inactive); with HCT-116, > 100 µM (inactive); in the test with CCRF-CEM, > 100 µM (inactive). Besides, the GI50 in the test with K562, in the test on NCI/ADR-RES, with HCC 2998, in the test on CAKI-1, in the test on OVCAR-3 and in the test on Malme-3M was > 100 µM (inactive) throughout.
